Key:
[1] = test system: CEM/VLB-100; experiment: Drug resistance of P-glycoprotein overexpressing CEM/VLB-100 cells; type: cell-based, human; settings: CEM/VLB-100 versus CCRF-CEM
Procedure: Pivarubicin used for TNBC studies was synthesized by Dr. John Rimoldi (Univ. of Mississippi) using the previously described protocol. Doxorubicin HCl, rottlerin and all antibodies were purchased from Sigma-Aldrich (St. Louis, Mo.). For in vitro experiments, doxorubicin and pivarubicin were dissolved in DMSO. The final maximum DMSO concentration used for in vitro drug treatments (1% for 72 hours) was not cytotoxic. IL-3-dependent 32D.3 murine myeloid cells, CCRF-CEM human lymphoblastic leukemia cells and multidrug-resistant variants (generous gift of Dr. William T. Beck, St. Jude Children's Research Hospital, Memphis, Tenn.), 293 embryonic human kidney cells and HL-60 human acute myeloid leukemia cells transfected with Bcr-Abl, Bcl-XL or empty expression vectors (generous gift of Dr. Kapil Bhalla, Univ. of Miami) were maintained as previously described. K562 human chronic myelogenous leukemia and LNCaP human prostate cancer cells were purchased from ATCC (Manassas, Va.) and maintained as described by the vendor. LNCaP/Bcl-2 cells were the generous gift of Dr. Ralph Buttyan (Columbia Univ.). Luminescent MDA-MB-231-LM2 (LM-2; metastatic lung subpopulation isolated from human TNBC MDA-MB-231 cells transduced with eIF1a-Luc2-puro lentivirus) were generously provided by Dr. Yibin Kang, Princeton Univ.) and maintained in culture as previously described. […]

[2] = test system: HL-60 cells transfected with Bcr-Abl; experiment: Cytotoxicity in Bcr-Abl transfected HL-60 cells; type: cell-based, human
Procedure: (§1) For the results shown in FIG. 5A, LNCaP cells transfected with Bcl-2 expression vector were assessed for doxorubicin or pivarubicin cytotoxicity, compared to cells transfected with empty vectors. Cells were exposed to 5 μM drug for 1 h, washed, and further incubated for 72 h in drug-free medium. Viability was determined by the MTT assay. For the results shown in FIG. 5B, pivarubicin cytotoxicity in HL-60 cells transfected with Bcr-Abl or Bcl-XL expression vectors were assessed for doxorubicin or pivarubicin cytotoxicity and compared as described for FIG. 5A.

[3] = test system: J774.2 murine macrophage-like cells; experiment: Drug biotransformation analysis (HPLC of intracellular drug) in J774.2 cells; type: in vitro ADME
From the text: (§2) Intracellular drug was extracted and analyzed by fluorescence HPLC as described previously.

[4] = test system: LNCaP human prostate cancer cells transfected with Bcl-2; experiment: MTT cytotoxicity in Bcl-2 transfected LNCaP cells; type: cell-based; settings: 5 μM for 1 h, 72 h drug-free
Procedure: as §1

[5] = test system: HL-60 human promyelocytic leukemia cells transfected with Bcl-XL; experiment: Cytotoxicity in Bcl-XL transfected HL-60 cells; type: cell-based; settings: 5 μM for 1 h, 72 h drug-free
Procedure: as §1

[6] = test system: 32D.3 murine myeloid cells; experiment: Drug biotransformation analysis (HPLC of intracellular drug) in 32D.3 cells; type: in vitro ADME
From the text: as §2

[7] = test system: human LNCaP prostate cancer cells; experiment: Pivarubicin cytotoxicity after PKCd siRNA transfection; type: cell-based; settings: PKCd-siRNA-transfected cells
[8] = test system: 293 embryonic human kidney cells; experiment: Drug biotransformation analysis (HPLC of intracellular drug) in 293 cells; type: in vitro ADME
From the text: as §2

[9] = test system: 32D.3 cells; experiment: Analysis of apoptosis (cytochrome c release immunoblot, TUNEL); type: cell-based, murine; settings: 5 μM for 1 hour
Procedure: Detection of DNA fragmentation in apoptotic cells by the TUNEL assay and immunoblot analyses of cytochrome c release were performed as described previously.
Once distributed into microsomal membranes, pivarubicin triggered rapid, mitochondrial-dependent apoptosis that was independent of cell cycle arrest. Marked release of cytochrome c into the cytosol as an indicator of mitochondrial depolarization and dysfunction is detected within 5 hours of drug treatment, while DNA fragmentation, as detected by TUNEL staining, is abundant by 6 hours.
In a study of Cytochrome c (Cyt C) release by pivarubicin (PIV) and control (C), 32D.3 cells were exposed to 5 μM pivarubicin for 1 hour, then incubated in drug-free medium for an additional 4 hours. Cells were then fractionated to isolate the cytosolic fraction, subjected to immunoblotting and treated with anti-cytochrome c monoclonal antibody (1:250) for 2 hours, followed by a 1-hour treatment with 1:1000 dilution of horseradish peroxidase-conjugated goat anti-mouse second antibody as described previously. Proteins were detected by chemiluminescence (FIG. 3A). […] Individual fields of cells were detected for both DNA 3′-end labeling (green: grayscale image in FIG. 3D) or total cellular DNA staining by propidium iodide (red: grayscale images in FIGS. 3C and 3E). […]

[10] = test system: 32D.3, J774.2 and 293 cells; experiment: Biotransformation to AD 288 after uptake into cells; type: in vitro ADME; settings: initial (1 hour), 1 μM
From the text: as §2

[11] = target: T1, PKCd (Mus musculus, UniProt P28867); experiment: PKCd translocation (cell fractionation, immunoblot); type: cell-based, murine; settings: within 4 hours of treatment with 5 μM; 32D.3 cells
T1 construct: endogenous in cells; host or cells: 32D.3 murine myeloid cells
From the text: Inhibition of PKCd activity also selectively impedes pivarubicin cytotoxicity.

T1 sequence (P28867 whole entry): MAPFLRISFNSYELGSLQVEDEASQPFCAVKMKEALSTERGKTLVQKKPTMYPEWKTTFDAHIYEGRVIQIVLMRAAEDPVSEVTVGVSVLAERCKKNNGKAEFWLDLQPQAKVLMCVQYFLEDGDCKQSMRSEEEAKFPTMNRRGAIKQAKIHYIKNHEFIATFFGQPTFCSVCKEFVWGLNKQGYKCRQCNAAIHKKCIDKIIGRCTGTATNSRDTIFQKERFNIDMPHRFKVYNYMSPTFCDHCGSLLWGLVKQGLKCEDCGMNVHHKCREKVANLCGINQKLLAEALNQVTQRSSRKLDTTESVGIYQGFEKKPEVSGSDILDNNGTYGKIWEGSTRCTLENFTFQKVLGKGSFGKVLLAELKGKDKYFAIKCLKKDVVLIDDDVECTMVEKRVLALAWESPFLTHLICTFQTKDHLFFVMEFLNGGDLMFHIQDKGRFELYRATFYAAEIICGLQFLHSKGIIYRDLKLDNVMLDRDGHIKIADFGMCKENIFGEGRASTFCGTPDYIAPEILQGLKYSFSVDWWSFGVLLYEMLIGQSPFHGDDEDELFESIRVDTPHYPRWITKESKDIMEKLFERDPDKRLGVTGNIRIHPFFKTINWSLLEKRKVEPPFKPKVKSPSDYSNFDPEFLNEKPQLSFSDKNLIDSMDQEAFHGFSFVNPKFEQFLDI

Row | SMILES | resistance [1] [fold] | effect of Bcr-Abl on cytotoxicity [2] | % Parent Compound ([3]; J774.2, 1 hr, 1 μM drug, 37° C.) [%] | % Parent Compound ([3]; J774.2, 8 hr (1 hr drug + 7 hours drug-free medium)) [%] | effect of Bcl-2 overexpression on rate of drug-induced apoptosis [4] | effect of Bcl-XL overexpression on rate of drug-induced apoptosis [5] | % Parent Compound ([6]; 32D.3, 1 hr, 1 μM drug, 37° C.) [%] | % Parent Compound ([6]; 32D.3, 8 hr (1 hr drug + 7 hours drug-free medium)) [%] | increase in concentration required to achieve 50% cell kill [7] [fold] | % Parent Compound ([8]; 293, 1 hr, 1 μM drug, 37° C.) [%] | % Parent Compound ([8]; 293, 8 hr (1 hr drug + 7 hours drug-free medium)) [%] | time to marked release of cytochrome c into the cytosol ([9]; then drug-free medium) [h] | DNA fragmentation detected by TUNEL staining ([9]; by 6 hours) | drug initially biotransformed [10] | PKCd translocation [11]
1 | COc1cccc2c1C(=O)c1c(O)c3c(c(O)c1C2=O)C[C@@](O)(C(=O)CO)C[C@@H]3O[C@H]1C[C@H](N)[C@H](O)[C@H](C)O1 [Doxorubicin, reference compound] | 73 | – | – | – | – | – | – | – | – | – | – | – | – | – | –
2 | COc1cccc2c1C(=O)c1c(O)c3c(c(O)c1C2=O)C[C@@](O)(C(=O)COC(=O)C(C)(C)C)C[C@@H]3O[C@H]1C[C@H](NCc2ccccc2)[C@H](O)[C@H](C)O1 [Pivarubicin, N-Benzyladriamycin-14-pivalate] | 3 | no inhibitory effect | 90 | 90 | do not impede | do not impede | 100 | 96 | 2.5 | 98 | 94 | ≤ 5 | abundant | less than 10% | translocates from the cytosolic to the membrane fraction
